Reference: US11793208B2, “Antimicrobial treatment of animal carcasses and food products” (EVONIK OPERATIONS GMBH, priority 2017, dated 2023)

Columns and labels:
[1] = pH of tap water containing acids and alkaline modifiers, before and after contact with chicken breast; format: physicochemical; settings: for pH after 1 hour: 1 hour at 4° C. with chicken breast; for pH initial: tap water 4° C., before addition of poultry
Experimental: Organic acids were added to plastic containers containing 5.0 L of tap water at 4° C. The alkaline modifiers, NaOH, Na2CO3, Na2CO3.1.5H2O2, Na3PO4, were added to the solution in the plastic container in an amount sufficient to bring pH to about 7-9 depending upon the pKa of the organic acid. Then, 5 pieces of chicken breast weighing about 200 gram each were added to each container. The solution was then incubated for one hour at 4° C., with periodic stirring. The pH was measured immediately before the addition of the poultry and then after the 1 hour incubation at 4° C.

[2] = tested on: Salmonella enterica ATCC 14028; assay: Salmonella suspension testing method; format: cell-based; settings: for Average Log10 reduction: 60 min treatment, 5% organic load; for kill of Salmonella: organic acid with addition of percarbonate, relatively high pH
Experimental: The effect of organic acids and alkaline modifiers on microbial viability was assayed using a Salmonella suspension testing method as described below. […] A 1:5 dilution of organism was prepared in Butterfield's buffer. This dilution was added in equal parts to sterile fetal bovine serum in order to produce a working inoculum containing a 50% organic load. […] Then, a 1 mL aliquot of working inoculum was added to the test solution and vortexed briefly to mix. A 1 mL aliquot was removed from the mixture at 1, 30, and 60 minutes following inoculation, and immediately added to a 9 mL volume of Letheen neutralizing broth. This broth was then vortex mixed, diluted serially into Butterfield's buffer, and the dilutions plated on 3[…] Aerobic Count Plates. The plates were incubated for 24-48 hours at 35° C., and then counted manually. Log 10 calculations were performed to obtain the Log 10 CFU/mL of the solutions at each time point.

[3] = Concentration of PAA and H2O2 in the presence of alkaline modifiers; format: physicochemical; settings: for effect of alkaline modifier on concentration of both PAA and hydrogen peroxide: PAA solution with the alkaline modifier, 1 hour at 4° C.; for PAA, ppm Initial / H2O2, ppm Initial: immediately after preparation; for H2O2, ppm in 1 hour / PAA, ppm in 1 hour: after 1 hour at 4° C.
[4] = tested on: Aerobic Plate Count (APC); assay: Microbial load of rinses from treated poultry offal: Aerobic Plate Count; format: cell-based; settings: 8-10 seconds
Experimental: (§1) For offal treatments, mixtures of organic acids and peroxyacids were prepared by weighing the components and dissolving them in water to reach the desired concentration. Peracetic acid (PAA) solutions were prepared by diluting VigorOx® (PeroxyChem LLC) with tap water to obtain the target concentration.
(§2) The pH of the aseptic compositions was adjusted using a 25% aqueous solution of NaOH, solid sodium carbonate, or sodium bicarbonate. The amount of active oxygen was confirmed by titration on an autotitrator and by using Chemetrics test kits K-7913F and K-5543.
(§3) Fresh poultry livers and gizzards, and lamb livers and kidneys were purchased untreated and fresh (not frozen) from local suppliers. All offal was kept refrigerated before testing.
(§4) Poultry offal was collected into a single large plastic bag. A gloved hand was used to remove either 6 whole, bi-lobed livers or 12 gizzards and place them in 350 mL of either water, an 840 ppm PAA solution, or an 840 ppm PAA solution that had been adjusted to a pH of 10.2 with sodium hydroxide and used within 5 minutes of pH adjustment. The samples were incubated in the solutions for 8-10 seconds. After treatment, a freshly gloved hand was used to remove 2 livers (or 4 gizzards) into a small plastic strainer. The treated samples were allowed to drain for 30 to 60 seconds to remove excess moisture. Each set of 2 livers (or 4 gizzards) was then placed into 100 mL peptone buffer and rinsed in the peptone for 30 seconds. A few milliliters of rinsate were removed by transfer pipette and kept on ice for dilution and plating. The plates were incubated for 24 to 48 hours at 35° C. and counted manually to determine the Aerobic Plate Count (APC) and the Enterobacteriaceae count (EBC). The color of the treated samples was noted by visual inspection.

[5] = tested on: Enterobacteriaceae; assay: Microbial load of rinses from treated poultry offal: Enterobacteriaceae count; format: cell-based; settings: 8-10 seconds
Experimental: as §1, §2, §3, §4

[6] = tested on: Aerobic Plate Count (APC); assay: Microbial reduction after PAA treatment of chicken livers: Aerobic Plate Count; format: cell-based; settings: PAA 1000 ppm
Experimental: (§5) Six chicken livers were added to 500 mL of peracetic acid solution, and incubated room temperature for 5, 15, or 30 seconds. Then the livers were removed and quickly added individually to 100 mL Buffered Peptone Water in a sterile cup, 1 liver per cup. Cups were manually shaken for 30 seconds and the liquid was sampled for plating. Sample rinses were serially diluted using Butterfield's buffer and plated on Aerobic Plate Count (APC) and Escherichia coli Coliform (ECC) plates. The plates were incubated for 24-48 hours at a temperature of 35° C., and then counted manually. Log10 calculations were performed to obtain the Log10 CFU/mL of the solutions at each time point.

[7] = tested on: Escherichia coli Coliform (ECC); assay: Microbial reduction after PAA treatment of chicken livers: Escherichia coli Coliform plates; format: cell-based; settings: PAA 1000 ppm
Experimental: as §5

[8] = tested on: Aerobic Plate Count (APC); assay: Microbial reduction after PAA treatment of lamb livers: Aerobic Plate Count; format: cell-based; settings: PAA 100 ppm
[9] = Citric 2,500 ppm, alkaline modifier Na2CO3•1.5H2O2
[10] = Citric 5,000 ppm, alkaline modifier Na2CO3•1.5H2O2
[11] = Glycolic 250 ppm, alkaline modifier Na2CO3
[12] = Glycolic 250 ppm, alkaline modifier NaOH
[13] = Glycolic 500 ppm, no alkaline modifier
[14] = additive Na5P3O10 125 ppm, initial PAA 10.4 ppm
[15] = additive Na5P3O10 125 ppm, initial PAA 30.1 ppm
[16] = Gizzards, 840 ppm PAA adjusted to pH 10.2 with sodium hydroxide
[17] = Livers, 840 ppm PAA adjusted to pH 10.2 with sodium hydroxide
[18] = alkaline modifier Na2CO3, pH 8.5, treatment time 5 seconds
[19] = alkaline modifier NaHCO3, pH 7.5, treatment time 15 seconds
[20] = alkaline modifier NaHCO3, pH 7.5, treatment time 30 seconds
[21] = alkaline modifier NaOH, pH 7.5, treatment time 5 seconds
[22] = no alkaline modifier, pH 3.1, treatment time 5 seconds
[23] = no alkaline modifier, pH 3.1, treatment time 15 seconds

For `O=C(O)CC(O)(CC(=O)O)C(=O)O` [Citric, citric acid], the “pH after 1 hour” value [1, 9] was 7.5, the pH initial [1, 9] was 7.5 and the “pH after 1 hour” value [1, 10] was 8.5. For the same compound, the pH initial [1, 10] was 8.5, the “Average Log10 reduction” value ([2]; Citric 0.5%, alkaline modifier Na2CO3•1.5H2O2, pH 7.5) was 7.09 and the “Average Log10 reduction” value ([2]; Citric 0.5%, no alkaline modifier, pH 2.4) was 3.83. For the same compound, the “kill of Salmonella” value [2] was “virtually complete kill”.
In the case of `O=C(O)CO` [Glycolic, glycolic acid], the “pH after 1 hour” value [1, 11] is reported as 6.8, the pH initial [1, 11] is reported as 6.7 and the “pH after 1 hour” value [1, 12] is reported as 7.5. For the same compound, the pH initial [1, 12] was 9.0, the “pH after 1 hour” value [1, 13] was 4.5 and the pH initial [1, 13] was 3.6.
In the case of `O=P(O)(O)OP(=O)(O)OP(=O)(O)O` [Na5P3O10, sodium tripolyphosphate, reference compound], the “effect of alkaline modifier on concentration of both PAA and hydrogen peroxide” value (“effect of alkaline modifier” for short) [3] is reported as “relatively rapid decrease”, the “PAA, ppm Initial” value ([3]; additive Na5P3O10 125 ppm, higher PAA level) is reported as 30.1 ppm and the “H2O2, ppm in 1 hour” value [3, 14] is reported as 1.4 ppm. The “PAA, ppm in 1 hour” value [3, 14] was 4.0 ppm, the “H2O2, ppm Initial” value [3, 14] was 6.5 ppm and the “H2O2, ppm in 1 hour” value [3, 15] was 4.8 ppm. For the same compound, the “PAA, ppm in 1 hour” value [3, 15] was 8.6 ppm, the “H2O2, ppm Initial” value [3, 15] was 20.1 ppm and the “PAA, ppm Initial” value ([3]; additive Na5P3O10 125 ppm, lower PAA level) was 10.4 ppm.
With `O=C([O-])O.[Na+]` [NaHCO3, sodium bicarbonate] the “effect of alkaline modifier” value [3] was “remained relatively stable”, the “H2O2, ppm in 1 hour” value ([3]; additive NaHCO3 125 ppm) was 6.3 ppm and the “PAA, ppm in 1 hour” value ([3]; additive NaHCO3 125 ppm) was 8.5 ppm. The “H2O2, ppm Initial” value ([3]; additive NaHCO3 125 ppm) was 6.5 ppm, the “PAA, ppm Initial” value ([3]; additive NaHCO3 125 ppm) was 10.4 ppm and the “H2O2, ppm in 1 hour” value ([3]; additive NaHCO3 250 ppm) was 18.9 ppm. The “PAA, ppm in 1 hour” value ([3]; additive NaHCO3 250 ppm) was 29.6 ppm, the “H2O2, ppm Initial” value ([3]; additive NaHCO3 250 ppm) was 19.9 ppm and the “PAA, ppm Initial” value ([3]; additive NaHCO3 250 ppm) was 30.3 ppm. For the same compound, the “H2O2, ppm in 1 hour” value ([3]; additive NaHCO3 275 ppm) was 11 ppm, the “PAA, ppm in 1 hour” value ([3]; additive NaHCO3 275 ppm) was 23 ppm and the “H2O2, ppm Initial” value ([3]; additive NaHCO3 275 ppm) was 11 ppm. For the same compound, the “PAA, ppm Initial” value ([3]; additive NaHCO3 275 ppm) was 25 ppm.
In the case of `[Na+].[OH-]` [NaOH, sodium hydroxide, reference compound], the “effect of alkaline modifier” value [3] is reported as “relatively rapid decrease”, the “H2O2, ppm in 1 hour” value ([3]; additive NaOH 100 ppm) is reported as 4 ppm and the “PAA, ppm in 1 hour” value ([3]; additive NaOH 100 ppm) is reported as 8 ppm. The “H2O2, ppm Initial” value ([3]; additive NaOH 100 ppm) was 11 ppm and the “PAA, ppm Initial” value ([3]; additive NaOH 100 ppm) was 25 ppm.
For `CC(=O)OO` [PAA, Peracetic acid], the “H2O2, ppm in 1 hour” value ([3]; no additive (0 ppm)) was 11 ppm, the “PAA, ppm in 1 hour” value ([3]; no additive (0 ppm)) was 24 ppm and the “H2O2, ppm Initial” value ([3]; no additive (0 ppm)) was 11 ppm. The “PAA, ppm Initial” value ([3]; no additive (0 ppm)) was 25 ppm, the “Log APC” value [4, 16] was 0.85 and the “Log APC” value ([4]; Gizzards, 840 ppm PAA, pH 3.4) was 0.70. For the same compound, the “Log APC” value [4, 17] was 0.30, the “Log APC” value ([4]; Livers, 840 ppm PAA, pH 3.4) was 0.00 and the “Log EBC” value [5, 16] was 0.00. For the same compound, the “Log EBC” value ([5]; Gizzards, 840 ppm PAA, pH 3.4) was 0.00, the “Log EBC” value [5, 17] was 0.00 and the “Log EBC” value ([5]; Livers, 840 ppm PAA, pH 3.4) was 0.00. The “APC log10 reduction” value [6, 18] was 1.1, the “APC log10 reduction” value [6, 19] was 1.1 and the “APC log10 reduction” value [6, 20] was 1.7. For the same compound, the “APC log10 reduction” value [6, 21] was 1.1, the “APC log10 reduction” value [6, 22] was 0.9 and the “APC log10 reduction” value [6, 23] was 1.2. The “ECC log10 reduction” value [7, 18] was 1.1, the “ECC log10 reduction” value [7, 19] was 3.1 and the “ECC log10 reduction” value [7, 20] was 3.1. For the same compound, the “ECC log10 reduction” value [7, 21] was 0.8, the “ECC log10 reduction” value [7, 22] was 0.5 and the “ECC log10 reduction” value [7, 23] was 1.1. For the same compound, the “APC log10 reduction” value ([8]; additive Citric acid, 2%, pH 7.5 (sodium carbonate), treatment time 10 minutes) was 1.8, the “APC log10 reduction” value ([8]; additive Lactic acid, 2%, pH 7.5 (sodium carbonate), treatment time 10 minutes) was 1.8 and the “APC log10 reduction” value ([8]; no additive, pH 4.1, treatment time 10 minutes) was 2.2. For the same compound, the “APC log10 reduction” value ([8]; no additive, pH 7.5 (adjusted with sodium carbonate), treatment time 10 minutes) was 3.0.
With `CCC(=O)O` [Propionic, propionic acid] the “Average Log10 reduction” value ([2]; Propionic 0.5%, alkaline modifier Na2CO3•1.5H2O2, pH 7.5) was 7.07, the “Average Log10 reduction” value ([2]; Propionic 0.5%, no alkaline modifier, pH 3.1) was 2.15 and the “kill of Salmonella” value [2] was “virtually complete kill”.
